Test results taken from US10576102B2, “KOC1-derived peptide and vaccine including same” (ONCOTHERAPY SCIENCE, INC., priority 2014, dated 2020).
Entries after “also recorded” stand apart in the source; their conditions may differ.

Legend:
peptide-pulsed C1R-A01 [1] = assay: IFN-gamma ELISA of CTL lines and CTL clone (HLA-A*0101); format: cell-based, human
Protocol: CTLs were propagated in culture using methods similar to those disclosed by Riddell et al. (Walter E A et al., N Engl J Med 1995, 333(16): 1038-44; Riddell S R et al., Nat Med 1996, 2(2): 216-23). The CTLs were co-cultured in a total of 25 ml AIM-V medium containing 5% AS and 40 ng/ml anti-CD3 antibody with two types of Mitomycin C-treated human B lymphoblastoid cell lines at 5×10^6 cells. One day after beginning of the culturing, 120 IU/ml IL-2 was added to the culture. On days 5, 8 and 11, a fresh AIM-V/5% AS medium containing 30 IU/ml IL-2 was added to the culture (Tanaka H et al., Br J Cancer 2001, 84(1): 94-9; Umano Y et al., Br J Cancer 2001, 84(8): 1052-7; Uchida N et al., Clin Cancer Res 2004, 10(24): 8577-86; Suda T et al., Cancer Sci 2006, 97(5): 411-9; Watanabe T et al., Cancer Sci 2005, 96(8): 498-506).
CTLs were seeded to make 1 or 10 cells/well in 96 round-bottomed microtiter plates (Nalge Nunc International). The CTLs were co-cultured with two types of Mitomycin C-treated human B lymphoblastoid cell lines at 1×10^4 cells in a total of 150 micro-1/well 5% AS-containing AIM-V medium with 30 ng/ml anti-CD3 antibody and 125 IU/ml IL-2. Ten days later, 50 micro-1 of IL-2 was added to the medium to reach a final IL-2 concentration of 125 IU/ml. On day 14, the CTL activity was tested, and the CTL clones were propagated using the same method as described above (Uchida N et al., Clin Cancer Res 2004, 10(24): 8577-86; Suda T et al., Cancer Sci 2006, 97(5): 411-9; Watanabe T et al., Cancer Sci 2005, 96(8): 498-506).
(§1) Specifically, peptide-pulsed C1R-A01 (1×10^4 cells/well) was prepared as the stimulator cell. The induced CTLs, i.e., CTL lines and CTL clones, were used as the responder cell. The IFN-gamma ELISPOT assay and IFN-gamma ELISA were performed according to the manufacturer's manual.

peptide-pulsed C1R-A01 [2] = assay: In vitro CTL induction, IFN-gamma ELISPOT assay (HLA-A*0101); format: cell-based, human; details: CTLs induced with peptide-pulsed DCs from HLA-A*0101-positive volunteers; day 21; vs peptide-pulsed C1R-A01, compared with unpulsed control
Protocol: C1R (C1R-A01) that stably expresses HLA-A*0101 was used as a stimulator cell. A cDNA encoding the open-reading frame of HLA-A*0101 was amplified by PCR and cloned into an expression vector. C1R cells were transfected with the expression vector, and then selected using G418 (Invitrogen) for two weeks. The G418-selected cells were seeded into wells containing G418-added culture medium in a 96-well plate, and further cultured for 30 days. The exogenous HLA-A*0101 expression in C1R cells was verified by flow cytometric analysis.
Monocyte-derived dendritic cells (DCs) were used as the antigen-presenting cell to induce a cytotoxic T lymphocyte (CTL) response against peptides presented on human leukocyte antigens (HLAs). As described in the other sections, DCs were generated in vitro (Nakahara S et al., Cancer Res 2003, 63(14): 4112-8). Specifically, peripheral-blood mononuclear cells isolated from healthy volunteers (HLA-A*0101-positive) with the Ficoll-Paque plus solution (Pharmacia) were separated by attaching to plastic tissue culture dishes (Becton Dickinson) and concentrated as a monocyte fraction. The monocyte-concentrated population was cultured in the presence of 1000 IU/ml granulocyte macrophage colony-stimulating factor (R&D System) and 1000 IU/ml interleukin(IL)-4 (R&D System) in an AIM-V medium (Invitrogen) containing 2% heat-inactivated autologous serum (AS). After seven days of culturing, the cytokine-induced DCs were pulsed with 20 micro-g/ml each of the synthesized peptides in an AIM-V medium at 37 degrees C. for three hours in the presence of 3 micro-g/ml beta 2-microglobulin. Next, these peptide-pulsed DCs were inactivated by X-ray irradiation (20 Gy), and mixed in a 1:20 ratio with autologous CD8^+ T cells obtained by positive selection using the CD8 Positive Isolation Kit (Dynal). These culture products were seeded in a 48-well plate (Corning). Each well was made to contain 1.5×10^4 peptide-pulsed DCs, 3×10^5 CD8^+ T cells and 10 ng/ml IL-7 (R&D System) in 0.5 ml of the AIM-V/2% AS medium. Three days later, these culture products were added with a final concentration of 20 IU/ml IL-2 (CHIRON). On day 7 and day 14, T cells were further stimulated with peptide-pulsed autologous DCs. The DCs were prepared every time by the same method as above. On day 21, after the third peptide stimulation, CTL activities were examined against the peptide-pulsed C1R-A01 cells (Tanaka H et al., Br J Cancer 2001, 84(1): 94-9; Umano Y et al., Br J Cancer 2001, 84(8): 1052-7; Uchida N et al., Clin Cancer Res 2004, 10(24): 8577-86; Suda T et al., Cancer Sci 2006, 97(5): 411-9; Watanabe T et al., Cancer Sci 2005, 96(8): 498-506).
as §1

[3] = system: COS7 cells transfected with both KOC1 and HLA-A*0101; assay: Specific CTL activity against target cells expressing KOC1 and HLA-A*0101; format: cell-based, African green monkey; details: listed as KOC1-A01-9-96
Protocol: as §1
A cDNA encoding the open-reading frame of a target gene or HLA-A*0101 was amplified by PCR. The PCR-amplified product was cloned into an expression vector. Expression vectors were transfected using Lipofectamine 2000 (Invitrogen) following the manufacturer's recommended protocol. Two days after transfection, the transfected cells were harvested using versene (Invitrogen), and used as the stimulator cell for CTL activity assay (5×10^4 cells/well).
The CTL clone established against KOC1-A01-9-96 (SEQ ID NO: 86) was investigated for its ability to recognize target cells expressing KOC1 and the HLA-A*0101 molecule. COS7 cells transfected with both full-length KOC1 and the HLA-A*0101 gene (a specific model of target cells expressing KOC1 and the HLA-A*0101 gene) were prepared as the target cell. COS7 cells transfected with either full-length KOC1 or HLA-A*0101 were prepared as the control.

VLDSLLVQY (a peptide derived from KOC1) [SEQ ID NO: 86]
IFN-gamma production of CTL clone, ELISA (peptide-pulsed C1R-A01 [1]; CTL clone by limiting dilution, peptide-pulsed C1R-A01, listed as KOC1-A01-9-96): Potent IFN-gamma production
IFN-gamma production of CTL lines, ELISA (peptide-pulsed C1R-A01 [1]; CTL lines, target cells pulsed with the peptide vs not pulsed, C1R-A01): potent IFN-gamma production
peptide-specific CTL activity (IFN-gamma production), ELISPOT (peptide-pulsed C1R-A01 [2]): potent IFN-gamma production
specific CTL activity of CTL clone against target cells expressing KOC1 and HLA-A*0101 ([3]; COS7 transfected with both full-length KOC1 and HLA-A*0101): specific CTL activity; also recorded: potent CTL activities
specific CTL activity of CTL clone against control cells ([3]; COS7 transfected with either full-length KOC1 or HLA-A*0101): a significant specific CTL activity was not shown; also recorded: a significant specific CTL activity was not detected
